{"source": "patent US6376534B1", "about": "“Compounds useful in pain management” (Astrazeneca Canada Inc., priority 1998, dated 2002)", "origin": "cited, not measured here", "key": {"δ receptor": {"molecular_target": "δ receptor (Homo sapiens, UniProt P41143)", "sequence (P41143 whole entry)": "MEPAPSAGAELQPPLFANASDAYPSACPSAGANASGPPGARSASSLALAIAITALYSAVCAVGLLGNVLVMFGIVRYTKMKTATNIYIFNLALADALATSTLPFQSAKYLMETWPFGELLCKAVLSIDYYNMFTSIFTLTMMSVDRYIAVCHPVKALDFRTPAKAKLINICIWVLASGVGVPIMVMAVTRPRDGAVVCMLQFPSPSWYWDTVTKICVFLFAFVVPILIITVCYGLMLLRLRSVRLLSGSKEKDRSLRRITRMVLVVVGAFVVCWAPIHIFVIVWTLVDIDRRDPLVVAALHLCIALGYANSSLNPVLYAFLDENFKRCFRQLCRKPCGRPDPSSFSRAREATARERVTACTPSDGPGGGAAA", "conditions": "background statement"}, "[1]": {"conditions": "background statement"}}}
{"compound": "Oc1ccc2c3c1O[C@H]1c4[nH]c5ccccc5c4C[C@@]4(O)[C@@H](C2)N(CC2CC2)CC[C@]314", "note": "[naltrindole]", "values": [{"measurement": "selectivity for the δ receptor vs. μ receptor binding", "setting": "δ receptor", "result": "< 10", "unit": "fold"}, {"measurement": "analgesic activity", "setting": "[1]", "result": "no analgesic activity"}]}
